From ChEMBL document CHEMBL5036320, “Discovery of Icenticaftor (QBW251), a Cystic Fibrosis Transmembrane Conductance Regulator Potentiator with Clinical Efficacy in Cystic Fibrosis and Chronic Obstructive Pulmonary Disease” (J Med Chem, 2021)
≈ marks a conversion by molar mass, not a printed value. One block for each compound: values may come before it.

Columns and labels:
[1] = Solubility of the compound at pH 6.8; type: physicochemical; conditions: buffer
[2] = Oral bioavailability in Sprague-Dawley rat at 3 mg/kg measured upto 48 hrs by LC-MS/MS analysis; type: ADME, organism-based; conditions: in vivo
[3] = Cmax in Sprague-Dawley rat at 3 mg/kg, po and 0.5 mg/kg, iv measured upto 48 hrs by LC-MS/MS analysis; type: ADME, organism-based; parameters: dose 3 mg/kg, time <=48; conditions: in vivo
[4] = target: T1, Cystic fibrosis transmembrane conductance regulator (Homo sapiens, UniProt P13569, F508DEL); assay: Potentiation of CFTR F508del mutant (unknown origin) expressed in CHO cells assessed as chloride transport by measuring membrane potential incubated for 5 to 30 mins in presence of forskolin by Quattro assay; type: cell-based
T1 sequence (P13569 as listed by the source): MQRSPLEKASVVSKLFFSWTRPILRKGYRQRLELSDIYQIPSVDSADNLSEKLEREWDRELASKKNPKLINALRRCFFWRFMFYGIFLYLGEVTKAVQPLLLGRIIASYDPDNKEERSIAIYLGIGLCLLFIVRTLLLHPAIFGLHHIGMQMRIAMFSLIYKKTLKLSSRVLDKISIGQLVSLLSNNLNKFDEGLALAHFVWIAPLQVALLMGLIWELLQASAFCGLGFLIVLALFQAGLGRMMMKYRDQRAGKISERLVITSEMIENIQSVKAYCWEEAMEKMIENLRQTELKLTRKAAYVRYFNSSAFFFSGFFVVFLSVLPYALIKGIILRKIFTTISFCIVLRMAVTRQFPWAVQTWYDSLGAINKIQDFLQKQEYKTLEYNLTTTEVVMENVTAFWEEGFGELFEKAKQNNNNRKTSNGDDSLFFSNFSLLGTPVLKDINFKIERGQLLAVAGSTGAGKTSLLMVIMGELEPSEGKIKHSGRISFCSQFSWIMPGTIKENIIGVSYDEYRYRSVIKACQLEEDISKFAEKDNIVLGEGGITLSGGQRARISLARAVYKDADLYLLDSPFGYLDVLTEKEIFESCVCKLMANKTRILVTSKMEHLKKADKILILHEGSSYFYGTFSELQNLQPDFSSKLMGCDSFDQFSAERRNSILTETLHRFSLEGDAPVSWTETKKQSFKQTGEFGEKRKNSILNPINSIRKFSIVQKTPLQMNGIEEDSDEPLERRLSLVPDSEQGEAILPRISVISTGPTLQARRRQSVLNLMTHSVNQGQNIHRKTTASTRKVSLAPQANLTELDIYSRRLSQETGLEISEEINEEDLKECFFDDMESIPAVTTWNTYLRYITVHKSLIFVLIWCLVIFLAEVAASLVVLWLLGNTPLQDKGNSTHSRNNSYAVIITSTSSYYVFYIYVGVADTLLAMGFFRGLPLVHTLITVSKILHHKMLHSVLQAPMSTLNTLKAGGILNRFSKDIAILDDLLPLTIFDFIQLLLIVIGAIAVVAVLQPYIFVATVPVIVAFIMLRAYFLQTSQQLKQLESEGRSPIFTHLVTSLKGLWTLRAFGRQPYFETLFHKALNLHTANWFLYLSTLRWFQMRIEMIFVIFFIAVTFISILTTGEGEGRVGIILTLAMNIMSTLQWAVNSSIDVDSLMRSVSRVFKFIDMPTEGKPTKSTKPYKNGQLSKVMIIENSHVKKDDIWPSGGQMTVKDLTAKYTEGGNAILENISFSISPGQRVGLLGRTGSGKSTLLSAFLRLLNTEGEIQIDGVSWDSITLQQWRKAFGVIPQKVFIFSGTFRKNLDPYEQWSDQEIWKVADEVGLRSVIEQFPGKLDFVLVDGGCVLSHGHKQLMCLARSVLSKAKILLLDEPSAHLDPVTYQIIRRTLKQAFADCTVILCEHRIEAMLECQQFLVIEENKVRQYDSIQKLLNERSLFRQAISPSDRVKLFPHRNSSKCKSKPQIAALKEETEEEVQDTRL

[5] = test system: Cystic fibrosis transmembrane conductance regulator (Homo sapiens), P13569 [F508del]; assay: Potentiation of CFTR F508del mutant (unknown origin) expressed in CHO cells assessed as chloride transport by measuring membrane potential incubated for 5 to 30 mins in presence of forskolin by Quattro assay relative to PG-01; type: cell-based; parameters: concentration or dose not given beside the values; conditions: filed as activator, time 5-30 min
Chain of Cystic fibrosis transmembrane conductance regulator (Homo sapiens), P13569 [F508del] (P13569 as listed by the source): as above

[6] = Clearance in Sprague-Dawley rat at 3 mg/kg, po and 0.5 mg/kg, iv measured upto 48 hrs by LC-MS/MS analysis; type: ADME, organism-based; conditions: in vivo
[7] = Volume of distribution at steady state in Sprague-Dawley rat at 3 mg/kg, po and 0.5 mg/kg, iv measured upto 48 hrs by LC-MS/MS analysis; type: ADME, organism-based; conditions: in vivo, read-out: Vdss
[8] = Mean residence time in Sprague-Dawley rat at 3 mg/kg, po and 0.5 mg/kg, iv measured upto 48 hrs by LC-MS/MS analysis; type: ADME, organism-based; conditions: in vivo
[9] = Plasma Protein binding in Sprague-Dawley rat at 5 uM incubated for 4 hrs by rapid equilibrium dialysis; type: ADME, cell-free; conditions: read-out: PPB (converted)
[10] = Cmax in Sprague-Dawley rat at 3 mg/kg, po and 1 mg/kg, iv measured upto 48 hrs by LC-MS/MS analysis; type: ADME, organism-based; parameters: dose 3 mg/kg, time <=48; conditions: in vivo
[11] = Unbound Cmax in Sprague-Dawley rat at 3 mg/kg, po and 1 mg/kg, iv measured upto 48 hrs by LC-MS/MS analysis; type: ADME, organism-based; conditions: in vivo
[12] = Volume of distribution in Sprague-Dawley rat at 3 mg/kg, po and 1 mg/kg, iv measured upto 48 hrs by LC-MS/MS analysis; type: ADME, organism-based; conditions: in vivo
[13] = Mean residence time in Sprague-Dawley rat at 3 mg/kg, po and 1 mg/kg, iv measured upto 48 hrs by LC-MS/MS analysis; type: ADME, organism-based; conditions: in vivo
[14] = Oral bioavailability in Beagle dog at 3 mg/kg after 48 hrs by LC-MS/MS analysis; type: ADME, organism-based, Canis lupus familiaris; conditions: in vivo
[15] = Oral bioavailability in cynomolgus monkey at 10 mg/kg after 48 hrs by LC-MS/MS analysis; type: ADME, organism-based, Macaca fascicularis; conditions: in vivo
[16] = Cmax in Beagle dog at 3 mg/kg, po or 0.46 mg/kg, iv after 48 hrs by LC-MS/MS analysis; type: ADME, organism-based, Canis lupus familiaris; parameters: time 48 hrs, dose 3 mg/kg; conditions: in vivo
[17] = Cmax in cynomolgus monkey at 10 mg/kg, po or 0.1 mg/kg, iv after 48 hrs by LC-MS/MS analysis; type: ADME, organism-based, Macaca fascicularis; parameters: time 48 hrs, dose 10 mg/kg; conditions: in vivo
[18] = Unbound Cmax in Beagle dog at 3 mg/kg, po or 0.46 mg/kg, iv after 48 hrs by LC-MS/MS analysis; type: ADME, organism-based, Canis lupus familiaris; conditions: in vivo
[19] = Unbound Cmax in cynomolgus monkey plasma measured at 10 mg/kg, po or 0.1 mg/kg, iv after 48 hrs by LC-MS/MS analysis; type: ADME, organism-based, Macaca fascicularis; conditions: in vivo
[20] = Clearance in Beagle dog plasma at 3 mg/kg, po or 0.46 mg/kg, iv after 48 hrs by LC-MS/MS analysis; type: ADME, organism-based, Canis lupus familiaris
[21] = Clearance in cynomolgus monkey plasma at 10 mg/kg, po or 0.1 mg/kg, iv after 48 hrs by LC-MS/MS analysis; type: ADME, organism-based, Macaca fascicularis
[22] = Clearance in Beagle dog blood at 3 mg/kg, po or 0.46 mg/kg, iv after 48 hrs by LC-MS/MS analysis; type: ADME, organism-based, Canis lupus familiaris
[23] = Clearance in cynomolgus monkey blood at 10 mg/kg, po or 0.1 mg/kg, iv after 48 hrs by LC-MS/MS analysis; type: ADME, organism-based, Macaca fascicularis
[24] = Volume of distribution at steady state in Beagle dog at 3 mg/kg, po or 0.46 mg/kg, iv after 48 hrs by LC-MS/MS analysis; type: ADME, organism-based, Canis lupus familiaris; conditions: in vivo, read-out: Vdss
[25] = Volume of distribution at steady state in cynomolgus monkey at 10 mg/kg, po or 0.1 mg/kg, iv after 48 hrs by LC-MS/MS analysis; type: ADME, organism-based, Macaca fascicularis; conditions: in vivo, read-out: Vdss
[26] = Mean residence time in Beagle dog at 3 mg/kg, po or 0.46 mg/kg, iv after 48 hrs by LC-MS/MS analysis; type: ADME, organism-based, Canis lupus familiaris; conditions: in vivo
[27] = Mean residence time in cynomolgus monkey at 10 mg/kg, po or 0.1 mg/kg, iv after 48 hrs by LC-MS/MS analysis; type: ADME, organism-based, Macaca fascicularis; conditions: in vivo
[28] = target: T1, Cystic fibrosis transmembrane conductance regulator; assay: Potentiation of CFTR F508del mutant (unknown origin) expressed in FRT cells assessed as chloride transport by measuring membrane potential in presence of forskolin; type: cell-based
[29] = test system: Cystic fibrosis transmembrane conductance regulator (Homo sapiens), P13569 [F508del]; assay: Potentiation of CFTR F508del mutant (unknown origin) expressed in FRT cells assessed as chloride transport by measuring membrane potential in presence of forskolin relative to PG-01; type: cell-based; conditions: filed as activator
[30] = target: T2, Cystic fibrosis transmembrane conductance regulator (Homo sapiens, UniProt P13569); assay: Potentiation of wild-type CFTR (unknown origin) expressed in FRT cells assessed as chloride transport by measuring membrane potential in presence of forskolin; type: cell-based
Target sequence in this assay (P13569 whole entry): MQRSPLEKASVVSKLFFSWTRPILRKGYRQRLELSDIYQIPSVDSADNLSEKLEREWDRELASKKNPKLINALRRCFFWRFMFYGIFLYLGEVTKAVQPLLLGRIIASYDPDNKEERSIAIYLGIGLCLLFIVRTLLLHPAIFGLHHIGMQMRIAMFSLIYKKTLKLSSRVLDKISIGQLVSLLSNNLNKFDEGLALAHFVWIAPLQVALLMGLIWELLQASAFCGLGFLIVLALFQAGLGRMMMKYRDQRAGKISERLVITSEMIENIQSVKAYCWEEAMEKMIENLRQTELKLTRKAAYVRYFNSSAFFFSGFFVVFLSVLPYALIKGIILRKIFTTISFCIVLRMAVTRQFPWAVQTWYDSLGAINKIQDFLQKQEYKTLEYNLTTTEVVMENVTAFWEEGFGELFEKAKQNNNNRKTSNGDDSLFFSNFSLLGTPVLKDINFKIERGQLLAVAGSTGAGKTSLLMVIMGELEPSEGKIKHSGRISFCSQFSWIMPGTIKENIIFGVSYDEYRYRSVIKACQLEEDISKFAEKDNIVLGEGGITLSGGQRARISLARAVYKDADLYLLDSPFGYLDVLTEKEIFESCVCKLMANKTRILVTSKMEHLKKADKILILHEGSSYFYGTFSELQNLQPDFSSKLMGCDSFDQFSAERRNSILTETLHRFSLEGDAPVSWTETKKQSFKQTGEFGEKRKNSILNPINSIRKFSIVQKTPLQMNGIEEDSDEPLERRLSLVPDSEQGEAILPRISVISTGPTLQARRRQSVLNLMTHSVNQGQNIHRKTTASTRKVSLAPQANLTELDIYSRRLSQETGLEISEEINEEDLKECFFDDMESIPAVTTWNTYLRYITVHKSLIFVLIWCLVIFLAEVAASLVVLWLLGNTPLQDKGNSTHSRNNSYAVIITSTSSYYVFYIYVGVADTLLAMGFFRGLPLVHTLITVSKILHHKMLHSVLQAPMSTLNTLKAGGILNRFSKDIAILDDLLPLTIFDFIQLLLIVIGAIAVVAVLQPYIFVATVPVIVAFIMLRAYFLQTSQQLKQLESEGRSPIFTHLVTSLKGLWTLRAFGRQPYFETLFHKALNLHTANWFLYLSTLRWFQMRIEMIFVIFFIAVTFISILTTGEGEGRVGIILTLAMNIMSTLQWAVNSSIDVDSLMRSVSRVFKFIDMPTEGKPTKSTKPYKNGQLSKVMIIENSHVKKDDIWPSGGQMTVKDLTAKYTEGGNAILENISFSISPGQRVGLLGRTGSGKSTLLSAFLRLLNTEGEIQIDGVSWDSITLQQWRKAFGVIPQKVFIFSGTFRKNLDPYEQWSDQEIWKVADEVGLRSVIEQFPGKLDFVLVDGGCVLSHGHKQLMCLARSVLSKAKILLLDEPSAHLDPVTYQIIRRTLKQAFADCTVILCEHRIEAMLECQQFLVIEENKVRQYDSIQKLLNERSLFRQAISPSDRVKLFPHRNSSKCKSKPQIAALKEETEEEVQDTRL

[31] = target: T2, Cystic fibrosis transmembrane conductance regulator; assay: Potentiation of wild-type CFTR (unknown origin) expressed in FRT cells assessed as chloride transport by measuring membrane potential in presence of forskolin relative to PG-01; type: cell-based; conditions: filed as activator
Target sequence in this assay (P13569 whole entry, looked up): as the sequence (P13569 whole entry) above

[32] = target: Cystic fibrosis transmembrane conductance regulator (Homo sapiens, UniProt P13569, G551D); assay: Potentiation of CFTR G551D mutant (unknown origin) expressed in FRT cells assessed as chloride transport by measuring membrane potential in presence of forskolin; type: cell-based
Chain of Cystic fibrosis transmembrane conductance regulator (Homo sapiens, UniProt P13569, G551D) (P13569 whole entry G551D): as the sequence (P13569 whole entry) above, with G551D counted along it

[33] = test system: Cystic fibrosis transmembrane conductance regulator (Homo sapiens), P13569 [G551D]; assay: Potentiation of CFTR G551D mutant (unknown origin) expressed in FRT cells assessed as chloride transport by measuring membrane potential in presence of forskolin relative to PG-01; type: cell-based; conditions: filed as activator
Chain of Cystic fibrosis transmembrane conductance regulator (Homo sapiens), P13569 [G551D] (P13569 whole entry G551D): as the sequence (P13569 whole entry) above, with G551D counted along it

[34] = target: T1, Cystic fibrosis transmembrane conductance regulator; assay: Potentiation of CFTR F508 deletion mutant (unknown origin) expressed in HBE cells assessed as change in short circuit current in presence of forskolin and amiloride; type: cell-based
[35] = test system: Cystic fibrosis transmembrane conductance regulator (Homo sapiens), P13569 [F508del]; assay: Potentiation of CFTR F508 deletion mutant (unknown origin) expressed in HBE cells assessed as change in short circuit current in presence of forskolin and amiloride relative to PG-01; type: cell-based; conditions: filed as activator
[36] = target: T2, Cystic fibrosis transmembrane conductance regulator; assay: Potentiation of wild type CFTR (unknown origin) expressed in HBE cells assessed as change in short circuit current in presence of forskolin and amiloride; type: cell-based
Target sequence in this assay (P13569 whole entry): as the sequence (P13569 whole entry) above

[37] = target: T2, Cystic fibrosis transmembrane conductance regulator; assay: Potentiation of wild type CFTR (unknown origin) expressed in HBE cells assessed as change in short circuit current in presence of forskolin and amiloride relative to PG-01; type: cell-based; conditions: filed as activator
Target sequence in this assay (P13569 whole entry, looked up): as the sequence (P13569 whole entry) above

[38] = Toxicity in Wistar Han rat assessed as NOAEL; conditions: in vivo, dose 10 mg/kg
[39] = Toxicity in Wistar Han rat assessed as tolerability at 100 mg/kg, po after 2 days; type: organism-based; conditions: in vivo, 48 h, time 2 day
[40] = Toxicity in human assessed as tolerability upto […], po bid; type: organism-based; conditions: in vivo
[41] = Clearance in Sprague-Dawley rat at 3 mg/kg, po and 1 mg/kg, iv measured upto 48 hrs by LC MS/MS analysis; type: ADME, organism-based; conditions: in vivo

solubility [1]: 177 µg/mL (≈ 447 µM) | bioavailability [2]: 32% | Cmax [3]: 271 nM | EC50 [4]: 9 nM | Activity [5]: 100% | clearance [6]: 53 mL/min/kg | Vd [7]: 3.2 L/kg | MRT [8]: 1 h
SMILES: Nc1cc(C(F)(F)F)c(Br)nc1C(=O)NC[C@@H](O)C(F)(F)F

solubility [1]: 237 µg/mL (≈ 656 µM) | fraction unbound at 4 h, 5 µM [9]: 0.097 | bioavailability [2]: 90% | Cmax [10]: 1360 nM | fCmax [11]: 132 nM | Vd [12]: 3 L/kg | MRT [13]: 10.2 h | bioavailability [14]: 146% | bioavailability [15]: 26% | Cmax [16]: 1950 nM | Cmax [17]: 2300 nM | fCmax [18]: 102 nM | fCmax [19]: 276 nM | clearance [20]: 29 mL/min/kg | clearance [21]: 18 mL/min/kg | clearance [22]: 41 mL/min/kg | clearance [23]: 20.2 mL/min/kg | Vd [24]: 7.5 L/kg | Vd [25]: 3.5 L/kg | MRT [26]: 4.4 h | MRT [27]: 3.3 h | EC50 [4]: 47 nM | Activity [5]: 96% | EC50 [28]: 79 nM | Activity [29]: 92% | EC50 [30]: 113 nM | Activity [31]: 79% | EC50 [32]: 497 nM | Activity [33]: 40% | EC50 [34]: 39 nM | Activity [35]: 84% | EC50 [36]: 72 nM | Activity [37]: 87% | clearance [41]: 5 mL/min/kg
SMILES: COc1nc(C(=O)NC[C@](C)(O)C(F)(F)F)c(N)cc1C(F)(F)F [ICENTICAFTOR]
NOAEL [38]: 10 mg/kg | Activity [39]: Non-Toxic | Activity [40]: Non-Toxic
